Key:
Assay type in all cases: cell-based, human
[1] = test system: CYP3A4 activity in hepatocyte-like cells; assay: CYP3A4 enzyme activity assay of hepatocyte maturation, media with or without HGF; conditions: absence of HGF in the culture media after the first 14 days of 2D differentiation, vs media containing HGF
Method: Mature hepatocyte-like cells were differentiated from human pluripotent stem cells using a 2D differentiation protocol for the first 14 days of differentiation, and then the cells were cultured in media lacking recombinant HGF. At day 14, hepatocytes at the hepatic endoderm stage were dissociated and seeded into these plates in fully supplemented HepatoZYME-SFM media. 24 hours later the cells were cultured and maintained in media lacking recombinant HGF. Hepatocyte maturation was determined using a CYP3A4 enzyme activity assay.

[2] = test system: hepatocyte and urea cycle genes in hepatocyte-like cells; assay: qPCR expression of hepatocyte and urea cycle genes in iPSC-derived hepatocyte-like cells (Protocols A and B)
Method: (§1) Human iPSCs were differentiated to hepatocyte-like cells essentially as described in […] et al., Nature Prot. 8(2):430-437 (2013) (Protocol A) or Blackford et al., Stem Cells Transl Med. 8(2):124-137 (2019) (Protocol B) with the following modifications: cells were maintained in the final medium until a total culture time of 35 days and HepatoZYME basal medium was substituted in Protocol B starting at day 8. Forskolin was added to the final medium at a concentration of […] on day 21 (Protocol A) or day 28 (Protocols A and B). Expression of hepatocyte and urea cycle genes was measured by qPCR and/or fluorescent Western blot analysis. Ureagenesis of the cells was assayed using Urea Assay Kit (BioChain).

hepatocyte-like cells [3] = assay: ureagenesis after ammonia challenge (Urea Assay Kit); conditions: day 35, seven-day forskolin
Method: as §1, with “(BioChain). Ureagenesis activity was measured in day 35 cells from Protocol A and Protocol B following seven-day treatment with forskolin, following challenge of the hepatocyte-like cells with 0-16 mM ammonia. […] For Protocol A, ureagenesis activity peaked at stimulation with 5 mM ammonia treatment at about 20 nmol/min/10^6 cells, and levels were observed higher than those seen using primary human hepatocytes. For […], ureagenesis activity peaked at stimulation with 10 mM ammonia at a level similar to primary human hepatocytes, about 3 nmol/min/10^6 cells.” for “(BioChain).”

[4] = test system: hepatocyte maturation genes and urea cycle genes in hepatocyte-like cells; assay: Taqman qPCR gene expression, 3D differentiation protocol with or without forskolin; conditions: 10 μM forskolin days 28 to 35, vs untreated
Method: In the process, the pluripotent stem cells differentiate through different stages including a definitive endoderm stage, an anterior definitive endoderm stage, a foregut endoderm stage, a hepatic endoderm stage, an immature hepatocyte stage, and a mature hepatocyte stage. […] All pluripotent cell lines robustly differentiated in the endoderm lineage in the 3D format, with all cell lines achieving a target efficiency of 90% CXCR4 expressing cells. Gene expression analysis was performed on hepatocyte-like cells produced by either (i) a 3D differentiation protocol or (ii) a 3D differentiation protocol with the addition of 10 μM forskolin from days 28 to day 35. Duplicate RNA samples were isolated at selected time point of the differentiation and gene expression was analyzed by Taqman qPCR.

hepatocyte-like cells [5] = assay: urea production assay at day 35, 2D differentiation with forskolin; conditions: forskolin about 5 μM to about 10 μM after the first 26 days, read at day 35
Method: Mature hepatocyte-like cells were differentiated from human pluripotent stem cells using a 2D differentiation protocol for the first 26 days of differentiation, and then the immature hepatocyte-like cells were cultured in media containing forskolin (ranging from about 5 μM to about 10 μM). At day 35, the activity for the hepatocytes was determined using a urea production assay.

[6] = test system: hepatocyte-specific genes and urea cycle enzyme genes; assay: gene expression in differentiation methods A, B and C with forskolin; conditions: forskolin at days 21-35 or 30-35 (3D) or days 28-35 (2D)
Method: This example provides urea cycle gene expression of hepatocyte-like cells differentiated using three different methods, such as a 3D differentiation method with forskolin treatment at days 21-35 (method A), a 3D differentiation method with forskolin treatment at days 30-35 (method B), and a 2D differentiation method with forskolin treatment at days 28-35 (method C). The expression of the following genes were measured: alpha fetoprotein (AFP), albumin (ALB), arginase 1 (ARG1), asialoglycoprotein receptor 1 (ASGR1), agininosuccinate lyase (ASL), argininosuccinate synthase 1 (ASS1), carbamoyl-phosphate synthase 1 (CPS1), glucose-6-phosphatase (G6PC), hepatocyte nuclear factor 4 alpha (HNF4a), keratin type I cytoskeletal 18 (KRT18), […] (NAGS), ornithine transcarbamylase (OTC), and SOX9. Expression of cardiac-specific markers NKX2.5 and TNNT2 were used as a negative expression control.
In this study, forskolin treatment was included at days 21-35 of the 3D hepatocyte differentiation process outlined above, at days 30-35 of the 3D hepatocyte differentiation process outlined above, or days 28-35 of the 2D hepatocyte differentiation process outlined above. Gene expression of numerous hepatocyte and urea cycle markers was measured at different time points.

hPSC-Heps spheroids = conditions: for ammonia detoxification: media containing ammonia; for ammonia detoxification with excess arginine: media containing ammonia and arginine
Method: Human pluripotent stem cell-derived hepatocytes (hPSC-Heps) were obtained after 21 days of differentiation using a 2D adherent protocol. At day 21 the hPSC-Heps were aggregated into spheroids, and then encapsulated within alginate 48 hours later. The spheroids including the alginate encapsulated spheroids were cultured for 14 days in either vitamin K1, vitamin K2 MK4, […], vitamin E, or a combination of all. The spheroids were cultured at a concentration of about 1×10^6 encapsulated cells/ml for the culture period.

HGF: recombinant hepatocyte growth factor in culture media
hepatocyte maturation (CYP3A4 enzyme activity) [1]: enhanced hepatocyte maturation

C=C[C@@]1(C)CC(=O)[C@]2(O)[C@@]3(C)[C@@H](O)CCC(C)(C)[C@@H]3[C@H](O)[C@H](OC(C)=O)[C@@]2(C)O1 [forskolin]
increase in urea cycle gene CPS1 ([2]; Protocol A, forskolin 10 mM at days 21-28, vs cells without forskolin, qPCR): 5-8 fold | expression of hepatocyte-like cell genes (HNF4a, AFP, ALB, ASGR1) ([2]; Protocol A, forskolin 10 mM in medium at days 21-28, vs cells without forskolin, qPCR): no significant effect | enhancement of hepatocyte-like cell gene (HNF4a, ALB, ASGR1) expression ([2]; Protocol B, forskolin 10 mM at days 28-35, read at day 35, vs cells without forskolin): 2-4 fold | peak ureagenesis activity (hepatocyte-like cells [3]; Protocol A, stimulation with 5 mM ammonia, higher than primary human hepatocytes): about 20 nmol/min/10^6 cells | peak ureagenesis activity (hepatocyte-like cells [3]; printed Protocol A (second mention), stimulation with 10 mM ammonia, similar to primary human hepatocytes): about 3 nmol/min/10^6 cells | expression of hepatocyte maturation genes and urea cycle genes [4]: increases in expression | ureagenesis activity of the differentiated mature hepatocyte (hepatocyte-like cells [5]): enhanced the ureagenesis activity | expression of hepatocyte-specific and urea cycle enzyme genes including ALB, ARG1, ASGR1, ASL, CPS1, G6PC, HNF4a and/or NAGS [6]: increased expression

CC(C)=CCC/C(C)=C/CC/C(C)=C/CC/C(C)=C/CC/C(C)=C/CC/C(C)=C/CC/C(C)=C/CC1=C(C)C(=O)c2ccccc2C1=O [vitamin K2 MK7]
functional maturation status of the hepatocytes (urea synthesis) (hPSC-Heps spheroids): increased the functional maturation status

CC(C)=CCC/C(C)=C/CC/C(C)=C/CC/C(C)=C/CC1=C(C)C(=O)c2ccccc2C1=O [vitamin K2 MK4]
functional maturation status of the hepatocytes (urea synthesis) (hPSC-Heps spheroids): increased the functional maturation status

CC1=C(C/C=C(\C)CCC[C@H](C)CCC[C@H](C)CCCC(C)C)C(=O)c2ccccc2C1=O [vitamin K1]
functional maturation status of the hepatocytes (urea synthesis) (hPSC-Heps spheroids): increased the functional maturation status | ammonia detoxification (hPSC-Heps spheroids): more effective at detoxifying ammonia | ammonia detoxification with excess arginine (hPSC-Heps spheroids): detoxified ammonia even faster

CC(C)=CCC/C(C)=C/CC/C(C)=C/CC/C(C)=C/CC1=C(C)C(=O)c2ccccc2C1=O [vitamin K2]
ammonia detoxification (hPSC-Heps spheroids): more effective at detoxifying ammonia | ammonia detoxification with excess arginine (hPSC-Heps spheroids): detoxified ammonia even faster

Reference: patent US20230383261A1, “HEPATOCYTE-LIKE CELLS” (Sana Biotechnology, Inc., priority 2020, published 2023)
